Test results: patent publication US12116388B2, “Amylin receptor agonists” (Novo Nordisk A/S, priority 2022, dated 2024)
Starred links: 1 amine or outer side, 2 acyl side, 3 side chain; linkers in the order of their positions; H or OH if unused. Residues, ends and D or L forms follow the SMILES beside them. *: point of attachment. C18 diacid = O=C(O)CCCCCCCCCCCCCCCCC(=O)*; γGlu = O=C(O)[C@H](CCC(=O)[*:2])N[*:1]

Columns and labels:
[1] = target: T1, human amylin receptor (hAMYR3) (Homo sapiens, UniProt O60896+P30988); test: Human amylin receptor (hAMYR3) in vitro potency assay, CRE-luciferase reporter in BHK cells; assay type: cell-based; settings: BHK hAMYR3/CRE-Luc cells, 3 hours incubation, assay buffer with 1% ovalbumin
T1 construct: host or cells: BHK (Baby Hamster Kidney), Hollex-1 cell line further transfected with RAMP3
Method in brief: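 Luminescence from a CRE-driven luciferase reporter reflects cAMP-mediated receptor activation. Peptides were serially diluted (7 concentrations, 7-fold steps, typically starting near 10 nM) in buffer with 1% ovalbumin and applied for 3 h at 37 °C to BHK cells co-expressing calcitonin receptor (a) and RAMP3.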

[2] = Oral pharmacokinetic profiles in Beagle dogs (SNAC tablets); assay type: in vivo; settings: oral tablet: 3 mg compound, 300 mg SNAC, 7.7 mg magnesium stearate; for half-life: male, dog, plasma, read-out: T½ (converted)
Method in brief: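 Male Beagle dogs, fasted overnight, received an oral immediate-release tablet of 3 mg compound with 300 mg SNAC, 10 min after ~3.2 nmol/kg subcutaneous glucagon. EDTA plasma sampled up to 288 h post-dose; concentrations measured by ethanol protein precipitation and LC-MS for pharmacokinetic parameters.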

T1 sequence (P30988 25-474): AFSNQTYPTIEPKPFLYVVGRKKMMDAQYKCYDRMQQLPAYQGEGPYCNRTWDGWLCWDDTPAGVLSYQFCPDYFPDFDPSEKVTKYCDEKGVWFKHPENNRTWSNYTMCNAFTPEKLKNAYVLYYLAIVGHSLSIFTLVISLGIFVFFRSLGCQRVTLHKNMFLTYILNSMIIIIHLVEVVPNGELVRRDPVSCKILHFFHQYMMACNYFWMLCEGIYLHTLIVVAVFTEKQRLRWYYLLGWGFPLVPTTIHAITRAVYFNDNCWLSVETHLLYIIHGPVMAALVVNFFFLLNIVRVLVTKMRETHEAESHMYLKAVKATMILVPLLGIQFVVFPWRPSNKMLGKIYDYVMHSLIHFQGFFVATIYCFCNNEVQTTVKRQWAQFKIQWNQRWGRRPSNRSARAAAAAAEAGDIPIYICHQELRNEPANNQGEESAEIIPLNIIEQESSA
T1 sequence (O60896 24-148): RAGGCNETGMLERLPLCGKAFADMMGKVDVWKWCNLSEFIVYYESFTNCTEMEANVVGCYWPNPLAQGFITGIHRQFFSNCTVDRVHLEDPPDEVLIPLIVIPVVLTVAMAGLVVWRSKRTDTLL

Compound | EC50 [1] | half-life [2] | AUC/D [2] | Cmax/D [2]
CC[C@H](C)[C@H](NC(=O)[C@@H]1CCCN1C(=O)CNC(=O)[C@H](Cc1ccccc1)NC(=O)[C@H](CC(N)=O)NC(=O)[C@H](CC(=O)O)NC(=O)[C@H](CO)NC(=O)[C@H](CO)NC(=O)[C@H](Cc1c[nH]cn1)NC(=O)[C@H](Cc1c[nH]cn1)NC(=O)[C@H](CC(C)C)NC(=O)[C@H](Cc1ccccc1)NC(=O)[C@H](CCC(=O)O)NC(=O)[C@H](C)NC(=O)[C@H](CC(C)C)NC(=O)[C@H](CCCNC(=N)N)NC(=O)[C@H](C)NC(=O)[C@@H](NC(=O)[C@H](CCC(N)=O)NC(=O)[C@H](C)NC(=O)[C@@H](NC(=O)[C@H](CO)NC(=O)[C@H](CC(C)C)NC(=O)[C@H](Cc1c[nH]cn1)NC(=O)[C@H](CO)NC(=O)[C@H](C)NC(=O)CC[C@H](NC(=O)CCCCCCCCCCCCCCCCC(=O)O)C(=O)O)[C@@H](C)O)[C@@H](C)O)C(=O)N[C@@H](CC(C)C)C(=O)N1CCC[C@H]1C(=O)N1CCC[C@H]1C(=O)N[C@H](C(=O)N[C@@H](CC(=O)O)C(=O)N[C@H](C(=O)NCC(=O)N[C@@H](CO)C(=O)N[C@@H](CC(N)=O)C(=O)N[C@H](C(=O)N1CCC[C@H]1C(N)=O)[C@@H](C)O)C(C)C)[C@@H](C)O [Compound 14, N^1-[(4S)-4-carboxy-4-(17-carboxyheptadecanoylamino)butanoyl]-[Ala1,Ser2,His3,Leu4,Ser5,Ala7,Gln8,Ala10,Glu14,His17,Asp21,Pro25,Pro28,Pro29,Asp31,Pro37]-human amylin] ({C18 diacid-γGlu}-ASHLSTAQTARLAEFLHHSSDNFGPILPPTDVGSNTP-NH2) | 1.28 pM | 113 h | 20.76 kg·h/L | 0.34 kg/L
CC[C@H](C)[C@H](NC(=O)[C@@H]1CCCN1C(=O)CNC(=O)[C@H](Cc1ccccc1)NC(=O)[C@H](Cc1c[nH]cn1)NC(=O)[C@H](Cc1c[nH]cn1)NC(=O)[C@H](CC(C)C)NC(=O)[C@H](Cc1ccccc1)NC(=O)[C@H](CCC(=O)O)NC(=O)[C@H](C)NC(=O)[C@H](CC(C)C)NC(=O)[C@H](CCCNC(=N)N)NC(=O)[C@H](C)NC(=O)[C@@H](NC(=O)[C@H](CCC(N)=O)NC(=O)[C@H](C)NC(=O)[C@@H](NC(=O)[C@H](CO)NC(=O)[C@H](CC(C)C)NC(=O)[C@H](CCC(=O)O)NC(=O)CNC(=O)[C@H](C)NC(=O)CC[C@H](NC(=O)CCCCCCCCCCCCCCCCC(=O)O)C(=O)O)[C@@H](C)O)[C@@H](C)O)C(=O)N[C@@H](CC(C)C)C(=O)N1CCC[C@H]1C(=O)N1CCC[C@H]1C(=O)N[C@H](C(=O)N[C@@H](CC(=O)O)C(=O)N[C@H](C(=O)NCC(=O)N[C@@H](CO)C(=O)N[C@@H](CCC(=O)O)C(=O)N[C@H](C(=O)N1CCC[C@H]1C(N)=O)[C@@H](C)O)C(C)C)[C@@H](C)O [Compound 16, N^1-[(4S)-4-carboxy-4-(17-carboxyheptadecanoylamino)butanoyl]-[Ala1,Gly2,Glu3,Leu4,Ser5,Ala7,Gln8,Ala10,Glu14,His17,Pro25,Pro28,Pro29,Asp31,Glu35,Pro37],des-(19-22)-human amylin] ({C18 diacid-γGlu}-AGELSTAQTARLAEFLHHFGPILPPTDVGSETP-NH2) | 1.25 pM | 95.8 h | 35.59 kg·h/L | 0.48 kg/L
CC[C@H](C)[C@H](NC(=O)[C@@H]1CCCN1C(=O)CNC(=O)[C@H](Cc1ccccc1)NC(=O)[C@H](Cc1c[nH]cn1)NC(=O)[C@H](Cc1c[nH]cn1)NC(=O)[C@H](CC(C)C)NC(=O)[C@H](Cc1ccccc1)NC(=O)[C@H](CCC(=O)O)NC(=O)[C@H](C)NC(=O)[C@H](CC(C)C)NC(=O)[C@H](CCCNC(=N)N)NC(=O)[C@H](C)NC(=O)[C@@H](NC(=O)[C@H](CCC(N)=O)NC(=O)[C@H](C)NC(=O)[C@@H](NC(=O)[C@H](CO)NC(=O)[C@H](CC(C)C)NC(=O)[C@H](Cc1c[nH]cn1)NC(=O)[C@H](CO)NC(=O)[C@H](C)NC(=O)CC[C@H](NC(=O)CC[C@H](NC(=O)CCCCCCCCCCCCCCCCC(=O)O)C(=O)O)C(=O)O)[C@@H](C)O)[C@@H](C)O)C(=O)N[C@@H](CC(C)C)C(=O)N1CCC[C@H]1C(=O)N1CCC[C@H]1C(=O)N[C@H](C(=O)N[C@@H](CC(=O)O)C(=O)N[C@H](C(=O)NCC(=O)N[C@@H](CO)C(=O)N[C@@H](CCC(=O)O)C(=O)N[C@H](C(=O)N1CCC[C@H]1C(N)=O)[C@@H](C)O)C(C)C)[C@@H](C)O [Compound 17, N^1-[(4S)-4-carboxy-4-[[(4S)-4-carboxy-4-(17-carboxyheptadecanoylamino)butanoyl]amino]butanoyl]-[Ala1,Ser2,His3,Leu4,Ser5,Ala7,Gln8,Ala10,Glu14,His17,Pro25,Pro28,Pro29,Asp31,Glu35,Pro37],des-(19-22)-human amylin] ({C18 diacid-γGlu-γGlu}-ASHLSTAQTARLAEFLHHFGPILPPTDVGSETP-NH2) | 1.11 pM | 94.8 h | 19.7 kg·h/L | 0.28 kg/L
CC[C@H](C)[C@H](NC(=O)[C@@H]1CCCN1C(=O)CNC(=O)[C@H](Cc1ccccc1)NC(=O)[C@H](CC(N)=O)NC(=O)[C@H](CC(=O)O)NC(=O)[C@H](CO)NC(=O)[C@H](CO)NC(=O)[C@H](Cc1c[nH]cn1)NC(=O)[C@H](Cc1c[nH]cn1)NC(=O)[C@H](CC(C)C)NC(=O)[C@H](Cc1ccccc1)NC(=O)[C@H](CCC(=O)O)NC(=O)[C@H](C)NC(=O)[C@H](CC(C)C)NC(=O)[C@H](CCCNC(=N)N)NC(=O)[C@H](C)NC(=O)[C@@H](NC(=O)[C@H](CCC(N)=O)NC(=O)[C@H](C)NC(=O)[C@@H](NC(=O)[C@H](CO)NC(=O)[C@H](CC(C)C)NC(=O)[C@H](CCC(N)=O)NC(=O)[C@H](CO)NC(=O)[C@H](C)NC(=O)CC[C@H](NC(=O)CCCCCCCCCCCCCCCCC(=O)O)C(=O)O)[C@@H](C)O)[C@@H](C)O)C(=O)N[C@@H](CC(C)C)C(=O)N1CCC[C@H]1C(=O)N1CCC[C@H]1C(=O)N[C@H](C(=O)N[C@@H](CC(=O)O)C(=O)N[C@H](C(=O)NCC(=O)N[C@@H](CO)C(=O)N[C@@H](CC(N)=O)C(=O)N[C@H](C(=O)N1CCC[C@H]1C(N)=O)[C@@H](C)O)C(C)C)[C@@H](C)O [Compound 22, N^1-[(4S)-4-carboxy-4-(17-carboxyheptadecanoylamino)butanoyl]-[Ala1,Ser2,Gln3,Leu4,Ser5,Ala7,Gln8,Ala10,Glu14,His17,Asp21,Pro25,Pro28,Pro29,Asp31,Pro37]-human amylin] ({C18 diacid-γGlu}-ASQLSTAQTARLAEFLHHSSDNFGPILPPTDVGSNTP-NH2) | 1.22 pM | 96.6 h | 24.43 kg·h/L | 0.35 kg/L
CC[C@H](C)[C@H](NC(=O)[C@H](C)NC(=O)CNC(=O)[C@H](Cc1ccccc1)NC(=O)[C@@H]1CCCN1C(=O)[C@H](CC(=O)O)NC(=O)[C@H](CO)NC(=O)[C@H](CO)NC(=O)[C@H](Cc1c[nH]cn1)NC(=O)[C@H](Cc1c[nH]cn1)NC(=O)[C@H](CC(C)C)NC(=O)[C@H](Cc1ccccc1)NC(=O)[C@H](CCC(=O)O)NC(=O)[C@H](C)NC(=O)[C@H](CC(C)C)NC(=O)[C@H](CCCNC(=N)N)NC(=O)[C@H](CCC(N)=O)NC(=O)[C@@H](NC(=O)[C@H](CCC(N)=O)NC(=O)[C@H](C)NC(=O)[C@@H](NC(=O)[C@H](CO)NC(=O)[C@H](CC(C)C)NC(=O)[C@H](CCC(N)=O)NC(=O)[C@H](CO)NC(=O)[C@H](C)NC(=O)CC[C@H](NC(=O)CCCCCCCCCCCCCCCCC(=O)O)C(=O)O)[C@@H](C)O)[C@@H](C)O)C(=O)N1CCC[C@H]1C(=O)N[C@@H](CO)C(=O)N[C@@H](CO)C(=O)N[C@H](C(=O)N[C@@H](CC(=O)O)C(=O)N[C@H](C(=O)NCC(=O)N1CCC[C@H]1C(=O)N[C@@H](CC(=O)O)C(=O)N[C@H](C(=O)N1CCC[C@H]1C(N)=O)[C@@H](C)O)C(C)C)[C@@H](C)O [Compound 24] ({C18 diacid-γGlu}-ASQLSTAQTQRLAEFLHHSSDPFGAIPSSTDVGPDTP-NH2) | 1.49 pM | 120 h | 31.21 kg·h/L | 0.36 kg/L
CC[C@H](C)[C@H](NC(=O)[C@H](C)NC(=O)CNC(=O)[C@H](Cc1ccccc1)NC(=O)[C@@H]1CCCN1C(=O)[C@H](CC(=O)O)NC(=O)[C@H](CO)NC(=O)[C@H](CO)NC(=O)[C@H](Cc1c[nH]cn1)NC(=O)[C@H](Cc1c[nH]cn1)NC(=O)[C@H](CC(C)C)NC(=O)[C@H](Cc1ccccc1)NC(=O)[C@H](CCC(=O)O)NC(=O)[C@H](C)NC(=O)[C@H](CC(C)C)NC(=O)[C@H](CCCNC(=N)N)NC(=O)[C@H](C)NC(=O)[C@@H](NC(=O)[C@H](CCC(N)=O)NC(=O)[C@H](C)NC(=O)[C@@H](NC(=O)[C@H](CO)NC(=O)[C@H](CC(C)C)NC(=O)[C@H](Cc1c[nH]cn1)NC(=O)[C@H](CO)NC(=O)[C@H](C)NC(=O)CC[C@H](NC(=O)CCCCCCCCCCCCCCCCC(=O)O)C(=O)O)[C@@H](C)O)[C@@H](C)O)C(=O)N1CCC[C@H]1C(=O)N[C@@H](CO)C(=O)N[C@@H](CO)C(=O)N[C@H](C(=O)N[C@@H](CC(=O)O)C(=O)N[C@H](C(=O)NCC(=O)N1CCC[C@H]1C(=O)N[C@@H](CC(=O)O)C(=O)N[C@H](C(=O)N1CCC[C@H]1C(N)=O)[C@@H](C)O)C(C)C)[C@@H](C)O [Compound 25, N^1-[(4S)-4-carboxy-4-(17-carboxyheptadecanoylamino)butanoyl]-[Ala1,Ser2,His3,Leu4,Ser5,Ala7,Gln8,Ala10,Glu14,His17,Asp21,Pro22,Pro27,Asp31,Pro34,Asp35,Pro37]-human amylin] ({C18 diacid-γGlu}-ASHLSTAQTARLAEFLHHSSDPFGAIPSSTDVGPDTP-NH2) | 1.27 pM | 152 h | 24.15 kg·h/L | 0.34 kg/L
